Laboratory results from publication PMC9883252 (iScience, 2023).

Assays:
[1] = tested on: P. falciparum gametocytes (NF54 and 3601E1); assay: Activity against synchronous gametocytes; assay type: cell-based, Plasmodium falciparum; conditions: stage V
[2] = tested on: P. falciparum NF54 strain; assay: Inhibition activity in the asexual blood stages; assay type: cell-based; conditions: Plasmodium falciparum, NF54, 72 h, read-out: Pf IC50 (mean)

COc1ccc(C[C@H](N)C(=O)N[C@H]2[C@@H](O)[C@H](n3cnc4c(N(C)C)ncnc43)O[C@@H]2CO)cc1 [Puromycin, puromycin]
killing of late stage gametocytes [1]: does not reach complete killing

COc1ccc2cc1Oc1ccc(cc1)C[C@@H]1NCCc3cc(OC)c4c(c31)Oc1cc3c(cc1O4)CCN(C)[C@H]3C2 [trilobine]
IC50 [2]: 410 nM
